Results from BindingDB's records for doi:10.1021/jm00037a025 (University of Oxford, 1994).

What follows are molecules tested against D(2) dopamine receptor (Rattus norvegicus, UniProt P61169) (assay: Displacement of spiperone from dopamine receptor D2 of rat brain membrane).
D(2) dopamine receptor, sequence (P61169 whole entry): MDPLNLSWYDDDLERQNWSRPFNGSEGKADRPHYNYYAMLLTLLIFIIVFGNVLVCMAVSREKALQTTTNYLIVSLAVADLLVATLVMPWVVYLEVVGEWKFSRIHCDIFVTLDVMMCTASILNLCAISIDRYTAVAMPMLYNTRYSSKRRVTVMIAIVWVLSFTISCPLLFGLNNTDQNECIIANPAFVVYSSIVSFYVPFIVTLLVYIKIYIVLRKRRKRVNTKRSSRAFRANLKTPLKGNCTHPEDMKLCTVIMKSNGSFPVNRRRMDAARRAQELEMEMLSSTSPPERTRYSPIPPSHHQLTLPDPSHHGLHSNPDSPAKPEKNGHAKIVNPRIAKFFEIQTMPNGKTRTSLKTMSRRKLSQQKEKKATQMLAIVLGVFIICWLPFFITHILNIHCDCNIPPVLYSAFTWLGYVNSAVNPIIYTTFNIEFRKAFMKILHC

`CCCCN1CCC[C@H](c2cccc(O)c2)C1` and `CN1CCC[C@H](c2cccc(O)c2)C1` are within 1.5-fold of each other in IC50: 430 nM for the first, 610 nM for the second.

Going from `CN1CCC[C@@H](c2cccc(O)c2)C1` to `CCc1ccc(N2CCC[C@@H](c3cccc(O)c3)C2)cc1`, the IC50 falls from 290 nM to 43.7 nM (6.6-fold). The second is the more potent here.

In the case of `CCc1ccc(N2CCC[C@H](c3cccc(O)c3)C2)cc1`, the IC50 is reported as 1230 nM.
